From US10793590B2, “Antifungal compounds” (President and Fellow of Harvard College, priority 2016, dated 2020)
Values after ≈ are worked out from the molar mass of the structure shown.

Columns and labels:
Candida albicans = assay: Liquid broth minimum inhibitory concentration; type: cell-based; conditions: YPD media, 30° C., OD600 at 14 h, 1% DMSO, read-out: MIC against Candida albicans
Protocol: (§1) Determination of minimum inhibitory concentration: Fresh DMSO solutions of selvarmicin and nystatin were prepared as serial dilutions and dispensed into clear flat-bottom 96-well plates in four replicates. A starting inoculum of the appropriate test strain in media was added to each well to yield a final concentration of 1% DMSO by volume. The plates were incubated at 30° C. with shaking at 200 rpm. Growth was assayed by OD600 readings taken on a M5 plate reader (Molecular Devices). For E. coli, B. subtilis, and M. luteus, the starting inoculum consisted of an overnight culture in LB diluted into LB media at 10 μL/mL and final OD readings were taken at 22 h. For C. albicans and S. cerevisiae, the starting inoculum consisted of an overnight culture in YPD media diluted to an OD600 of 0.05 in YPD media and final OD readings were taken at 14 h. For T. harzianum and A. fumigatus, the starting inoculum consisted of a stock of concentrated conidia diluted into potato dextrose broth at 2 uL/mL and final OD readings were taken at 22 h. Using Prism (GraphPad), the OD data were normalized and fit to a Gompertz function, from which MIC values were extracted.
(§2) Selvamicin's improved solubility, despite its lack of charged carboxylate and ammonium groups, is probably contributed by its second sugar moiety.

B. subtilis = assay: Liquid broth activity testing against bacteria; type: cell-based; conditions: LB media, OD at 22 h
Protocol: as §1, §2

E. coli = assay: Liquid broth activity testing against bacteria; type: cell-based; conditions: LB media, OD at 22 h
Protocol: as §1, §2

M. luteus = assay: Liquid broth activity testing against bacteria; type: cell-based; conditions: LB media, OD at 22 h
Protocol: as §1, §2

Solubility determination = type: physicochemical; conditions: HEPES buffer, aqueous buffer, thermodynamic from solid; 5 mM HEPES pH 7.4, 22° C., UV-vis absorbance
Protocol: Solubility determination: Solubility for selvamicin and nystatin was measured with minor modifications from a previously reported protocol. 1 Briefly, in microcentrifuge tubes, 20 μL […] HEPES (pH=7.4) was added to 2.5 mg of selvamicin and of nystatin and the resulting suspensions were vortexed vigorously for 30 min at 22° C. The tubes were centrifuged, the resulting supernatants were diluted in HEPES buffer, and concentrations were determined by UV-vis absorbance (306 nm for nystatin and 335 nm for selvamicin).

[1] = Isothermal calorimetry sterol binding assay; conditions: 150 μM polyene, POPC LUVs with 11 mol % ergosterol, 25° C.
Protocol: Isothermal Calorimetry Sterol Binding Assay:
Large unilamellar vesicle (LUV) preparation: In a glass vial, a 25 mg/mL solution of palmitoyl oleoyl phosphatidylcholine (POPC) in chloroform (0.96 mL, Avanti Polar Lipids) was mixed with a freshly prepared 4 mg/mL solution of the appropriate sterol (ergosterol or cholesterol. Aldrich) in chloroform (0.35 mL). The sterol solution was omitted for preparation of sterol-free POPC LUVs. The resulting solution was evaporated to dryness in vacuo to yield a lipid film, which was placed under high vacuum for at least 5 h. To this film was added 1 mL 5 mM HEPES (pH adjusted to 7.4 with KOH) and the resulting suspension was vortexed for 3 min. This lipid suspension was loaded into a syringe and passed through a 0.1 μM filter (Whatman) 21 times using an Avanti Polar Lipids Mini-Extruder to yield an LUN suspension (32 mM POPC, 11 mol % sterol; assumed no loss during extrusion).
Isothermal calorimetry (ITC) experiments: Solutions of polyene (150 μM selvamicin or nystatin) in 1% DMSO/5 mM HEPES (pH=7.4) were prepared by dilution from a 1.5 mM solution in DMSO. 8 mM POPC LUV suspensions in 1% DMSO/5 mM HEPES (pH=7.4) were prepared by dilution of the above LUV suspensions with HEPES buffer and DMSO. […]

Candida albicans K1 = assay: Neutropenic mouse disseminated candidiasis model (Example 8); type: in vivo; conditions: 80 mg/kg single intraperitoneal dose 2 h after infection, read 8 h after therapy
Protocol: (§3) Selvamicin was tested in the neutropenic mouse disseminated candidiasis model. Briefly, mice were infected with an inoculum of 5.70 log 10 cfu/ml of Candida albicans K1. Two hours after infection, the mice were administered either saline or selvamicin at 80 mg/kg via the intraperitoneal route. Eight hours after therapy, the burden of Candida albicans in mouse kidneys was measured by viable plate counts of organ homogenates.

[2] = Animal toxicity in neutropenic mouse disseminated candidiasis model (Example 8); type: in vivo; conditions: 80 mg/kg intraperitoneal, neutropenic mice
Protocol: as §3

C. albicans = assay: Neutropenic mouse disseminated candidiasis model (Example 9); type: in vivo; conditions: 20 mg/kg or 80 mg/kg intraperitoneal
Protocol: (§4) Selvamicin was tested in the neutropenic mouse disseminated candidiasis model. Mice were infected with an inoculum of C. albicans, C. glabrata, and C. auris. After infection, the mice were administered either saline or selvaimicin at 20 mg/kg or 80 mg/kg via an intraperitoneal route. After therapy, the burden of Candida albicans in mouse kidneys was measured by viable plate counts of organ homogenates.

C. auris = assay: as above; type: in vivo; conditions: 20 mg/kg or 80 mg/kg intraperitoneal
Protocol: as §4

C. glabrata = assay: as above; type: in vivo; conditions: 20 mg/kg or 80 mg/kg intraperitoneal
Protocol: as §4

| SMILES | MIC (Candida albicans) [µM] | Activity against Gram-positive bacteria (B. subtilis) (B. subtilis) | Activity against Gram-negative bacteria (E. coli) (E. coli) | Activity against Gram-positive bacteria (M. luteus) (M. luteus) | solubility at 30 min (Solubility determination) [µM] | Binding to ergosterol-containing vesicles (ITC, heats evolved) [1] | Efficacy: burden of Candida albicans in mouse kidneys (Candida albicans K1) | Animal toxicity [2] | Efficacy in preventing C. albicans growth (kidney burden) (C. albicans) | Efficacy in preventing C. auris growth (kidney burden) (C. auris) | Efficacy in preventing C. glabrata growth (kidney burden) (C. glabrata) |
| --- | --- | --- | --- | --- | --- | --- | --- | --- | --- | --- | --- |
| CCC1OC(=O)CC[C@@H](O)[C@H](O)C[C@H](O)C[C@]2(O)C[C@H](O)[C@](C)(O)C(CC(O[C@@H]3O[C@H](C)[C@@H](O)[C@H](O)[C@@H]3O)/C=C/C=C/C=C/C=C/C=C/C(C)C(O[C@H]3C[C@@H](O)[C@@H](OC)[C@H](C)O3)C1C)O2 (stereo partly shown) [Selvamicin] | 23 (≈ 21.4 µg/mL) | No activity was detected | No activity was detected | No activity was detected | 2300 (≈ 2140 µg/mL) | no evidence for binding | demonstrated efficacy in preventing Candida albicans growth | No animal toxicity was apparent | demonstrated efficacy | demonstrated efficacy | demonstrated efficacy |
| C[C@@H]1[C@H](O)[C@@H](C)/C=C/C=C/CC/C=C/C=C/C=C/C=C/[C@H](O[C@H]2O[C@H](C)[C@@H](O)[C@H](N)[C@@H]2O)C[C@@H]2O[C@](O)(C[C@@H](O)[C@H](O)CC[C@@H](O)C[C@@H](O)C[C@@H](O)CC(=O)O[C@H]1C)C[C@H](O)[C@H]2C(=O)O [nystatin A1, reference compound] | 1 (≈ 0.926 µg/mL) |  |  |  | 300 (≈ 278 µg/mL) |  |  |  |  |  |  |
